Assay results reported in patent US6737383B1, “Herbicidal oxadiazolidines” (priority 1999, dated 2004).

Legend:
soybean = assay: Test B pre/postemergence soybean; type: in vivo, Glycine max
Procedure, shortened: (§1)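 Response is a visual 0-to-10 score relative to untreated plants, where 0 means no effect and 10 means complete control, taken twelve to sixteen days after application. Treatments went onto soil at planting and onto foliage of 1- to 4-leaf plants, using a surfactant-containing non-phytotoxic solvent.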

corn = assay: Test B pre/postemergence corn; type: in vivo, Zea mays
Procedure, shortened: as §1

pigweed = assay: Test B pre/postemergence pigweed; type: in vivo, Amaranthus retroflexus
Procedure, shortened: as §1

smallflower flatsedge = assay: Test B flood test smallflower flatsedge; type: in vivo, Cyperus difformis
Procedure, shortened: (§2)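 Flood test on plants grown to the 2-leaf stage; treated plants kept in greenhouse twelve to sixteen days, then visually rated against controls on a 0 (no effect) to 10 (complete control) scale.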

cocklebur = assay: Test B pre/postemergence cocklebur; type: in vivo, Xanthium strumarium
Procedure, shortened: as §1

rice = assay: Test B flood test rice; type: in vivo, Oryza sativa
Procedure, shortened: as §2

wheat = assay: Test B pre/postemergence wheat; type: in vivo, Triticum aestivum
Procedure, shortened: as §1

blackgrass = assay: Test B pre/postemergence blackgrass; type: in vivo, Alopecurus myosuroides
Procedure, shortened: as §1

duck salad = assay: Test B flood test duck salad; type: in vivo, Heteranthera limosa
Procedure, shortened: as §2

bamyardgrass = assay: Test B flood test barnyardgrass; type: in vivo, Echinochloa crus-galli
Procedure, shortened: as §2

purple nutsedge = assay: Test B pre/postemergence purple nutsedge; type: in vivo, Cyperus rotundus
Procedure, shortened: as §1

surinam grass = assay: Test B pre/postemergence surinam grass; type: in vivo, Brachiaria decumbens
Procedure, shortened: as §1

morningglory = assay: Test B pre/postemergence morningglory; type: in vivo, Ipomoea hederacea
Procedure, shortened: as §1

sugar beet = assay: Test B pre/postemergence sugar beet; type: in vivo, Beta vulgaris
Procedure, shortened: as §1

velvetleaf = assay: Test B pre/postemergence velvetleaf; type: in vivo, Abutilon theophrasti
Procedure, shortened: as §1

crabgrass = assay: Test B pre/postemergence crabgrass; type: in vivo, Digitaria sanguinalis
Procedure, shortened: as §1

wild oat = assay: Test B pre/postemergence wild oat; type: in vivo, Avena fatua
Procedure, shortened: as §1

giant foxtail = assay: Test B pre/postemergence giant foxtail; type: in vivo, Setaria faberii
Procedure, shortened: as §1

rape = assay: Test B pre/postemergence rape; type: in vivo, Brassica napus
Procedure, shortened: as §1

[1] = Postemergence, Rate 62 g/ha, scale 0 to 10, 0 is no effect, 10 is complete control
[2] = Postemergence, Rate 125 g/ha, scale of 0 to 10 where 0 is no effect and 10 is complete control
[3] = Postemergence, Rate 250 g/ha, scale of 0 to 10, 0 is no effect, 10 is complete control
[4] = Preemergence, Rate 62 g/ha, scale of 0 to 10 where 0 is no effect and 10 is complete control
[5] = Preemergence, Rate 125 g/ha, scale of 0 to 10 where 0 is no effect and 10 is complete control
[6] = Preemergence, Rate 250 g/ha, scale 0 to 10 (0 no effect, 10 complete control)
[7] = Preemergence, Rate 500 g/ha, scale of 0 to 10 where 0 is no effect and 10 is complete control
[8] = Postemergence, Rate 500 g/ha, scale of 0 to 10 where 0 is no effect and 10 is complete control
[9] = Rate 62 g/ha, flood test species, Pre-emergence, visual evaluation after twelve to sixteen days
[10] = Rate 125 g/ha, under heading Pre-emergence, flood test species, visual evaluation after twelve to sixteen days
[11] = Rate 250 g/ha, Pre-emergence (flood test species), scale 0 to 10, 0 is no effect, 10 is complete control
[12] = Rate 500 g/ha, Pre-emergence section of Table B, 0 to 10 scale (0 no effect, 10 complete control)

CC(C)N(C(=O)n1oc(=O)n(CC(=O)C2CCC2)c1=O)c1ccccc1 [Compound 641]
Plant response rating, Soybean (soybean; [1]): 0 | Plant response rating, Soybean (soybean; [2]): 0 | Soybean plant response rating (soybean; [3]): 1 | Soybean plant response rating (soybean; [4]): 0 | Soybean plant response rating (soybean; [5]): 0 | Plant response rating, Soybean (soybean; [6]): 0 | Plant response rating, Soybean (soybean; [7]): 0 | Plant response rating, Corn (corn; [1]): 0 | Plant response rating, Corn (corn; [2]): 0 | Corn plant response rating (corn; [3]): 0 | Plant response rating, Corn (corn; [8]): 0 | Corn plant response rating (corn; [4]): 0 | Plant response rating, Corn (corn; [6]): 0 | Plant response rating, Corn (corn; [7]): 2 | Plant response rating, Redroot pigweed (pigweed; [2]): 0 | Redroot pigweed plant response rating (pigweed; [3]): 3 | Redroot pigweed plant response rating (pigweed; [4]): 0 | Redroot pigweed plant response rating (pigweed; [5]): 0 | Plant response rating, Redroot pigweed (pigweed; [6]): 0 | Plant response rating, Redroot pigweed (pigweed; [7]): 7 | Plant response rating, S. Flatsedge (0 to 10 scale, 0 is no effect, 10 is complete control) (smallflower flatsedge; [9]): 0 | S. Flatsedge plant response rating (0 to 10 scale, 0 is no effect, 10 is complete control) (smallflower flatsedge; [10]): 0 | S. Flatsedge plant response rating (smallflower flatsedge; [11]): 0 | S. Flatsedge plant response rating (smallflower flatsedge; [12]): 0 | Plant response rating, Cocklebur (cocklebur; [1]): 0 | Plant response rating, Cocklebur (cocklebur; [2]): 0 | Cocklebur plant response rating (cocklebur; [3]): 0 | Plant response rating, Cocklebur (cocklebur; [8]): 0 | Cocklebur plant response rating (cocklebur; [4]): 0 | Cocklebur plant response rating (cocklebur; [5]): 0 | Plant response rating, Cocklebur (cocklebur; [6]): 0 | Plant response rating, Cocklebur (cocklebur; [7]): 0 | Plant response rating, Rice (0 to 10 scale, 0 is no effect, 10 is complete control) (rice; [9]): 0 | Rice plant response rating (0 to 10 scale, 0 is no effect, 10 is complete control) (rice; [10]): 0 | Rice plant response rating (rice; [11]): 0 | Rice plant response rating (rice; [12]): 0 | Plant response rating, Wheat (wheat; [1]): 0 | Plant response rating, Wheat (wheat; [2]): 0 | Wheat plant response rating (wheat; [3]): 0 | Wheat plant response rating (wheat; [4]): 0 | Wheat plant response rating (wheat; [5]): 0 | Plant response rating, Wheat (wheat; [6]): 0 | Plant response rating, Wheat (wheat; [7]): 0 | Plant response rating, Blackgrass (blackgrass; [1]): 0 | Plant response rating, Blackgrass (blackgrass; [2]): 0 | Blackgrass plant response rating (blackgrass; [3]): 2 | Plant response rating, Blackgrass (blackgrass; [8]): 6 | Blackgrass plant response rating (blackgrass; [4]): 0 | Blackgrass plant response rating (blackgrass; [5]): 0 | Plant response rating, Blackgrass (blackgrass; [6]): 2 | Plant response rating, Blackgrass (blackgrass; [7]): 8 | Plant response rating, Ducksalad (0 to 10 scale, 0 is no effect, 10 is complete control) (duck salad; [9]): 0 | Ducksalad plant response rating (0 to 10 scale, 0 is no effect, 10 is complete control) (duck salad; [10]): 0 | Ducksalad plant response rating (duck salad; [11]): 0 | Ducksalad plant response rating (duck salad; [12]): 0 | Plant response rating, Barnyardgrass (0 to 10 scale, 0 is no effect, 10 is complete control) (bamyardgrass; [9]): 0 | Barnyardgrass plant response rating (0 to 10 scale, 0 is no effect, 10 is complete control) (bamyardgrass; [10]): 0 | Barnyardgrass plant response rating (bamyardgrass; [11]): 0 | Barnyardgrass plant response rating (bamyardgrass; [12]): 0 | Plant response rating, Nutsedge (purple nutsedge; [1]): 0 | Plant response rating, Nutsedge (purple nutsedge; [2]): 0 | Nutsedge plant response rating (purple nutsedge; [3]): 4 | Nutsedge plant response rating (purple nutsedge; [4]): 0 | Nutsedge plant response rating (purple nutsedge; [5]): 0 | Plant response rating, Nutsedge (purple nutsedge; [6]): 0 | Plant response rating, Nutsedge (purple nutsedge; [7]): 3 | Plant response rating, B. signalgrass (surinam grass; [1]): 0 | Plant response rating, B. signalgrass (surinam grass; [2]): 0 | B. signalgrass plant response rating (surinam grass; [3]): 0 | Plant response rating, B. signalgrass (surinam grass; [8]): 4 | B. signalgrass plant response rating (surinam grass; [4]): 0 | B. signalgrass plant response rating (surinam grass; [5]): 0 | Plant response rating, B. signalgrass (surinam grass; [6]): 6 | Plant response rating, B. signalgrass (surinam grass; [7]): 8 | Plant response rating, Morningglory (morningglory; [1]): 0 | Plant response rating, Morningglory (morningglory; [2]): 1 | Morningglory plant response rating (morningglory; [3]): 7 | Plant response rating, Morningglory (morningglory; [8]): 9 | Morningglory plant response rating (morningglory; [4]): 0 | Morningglory plant response rating (morningglory; [5]): 0 | Plant response rating, Morningglory (morningglory; [6]): 0 | Plant response rating, Morningglory (morningglory; [7]): 0 | Plant response rating, Sugarbeets (sugar beet; [1]): 0 | Plant response rating, Sugarbeets (sugar beet; [2]): 0 | Sugarbeets plant response rating (sugar beet; [3]): 0 | Sugarbeets plant response rating (sugar beet; [4]): 0 | Sugarbeets plant response rating (sugar beet; [5]): 0 | Plant response rating, Sugarbeets (sugar beet; [6]): 0 | Plant response rating, Sugarbeets (sugar beet; [7]): 0 | Plant response rating, Velvetleaf (velvetleaf; [1]): 0 | Plant response rating, Velvetleaf (velvetleaf; [2]): 0 | Velvetleaf plant response rating (velvetleaf; [3]): 0 | Velvetleaf plant response rating (velvetleaf; [4]): 0 | Velvetleaf plant response rating (velvetleaf; [5]): 0 | Plant response rating, Velvetleaf (velvetleaf; [6]): 0 | Plant response rating, Velvetleaf (velvetleaf; [7]): 0 | Plant response rating, Crabgrass (crabgrass; [1]): 0 | Plant response rating, Crabgrass (crabgrass; [2]): 0 | Crabgrass plant response rating (crabgrass; [3]): 3 | Plant response rating, Crabgrass (crabgrass; [8]): 6 | Crabgrass plant response rating (crabgrass; [4]): 0 | Crabgrass plant response rating (crabgrass; [5]): 3 | Plant response rating, Crabgrass (crabgrass; [6]): 7 | Plant response rating, Crabgrass (crabgrass; [7]): 9 | Plant response rating, Wild oats (wild oat; [1]): 0 | Plant response rating, Wild oats (wild oat; [2]): 1 | Wild oats plant response rating (wild oat; [3]): 1 | Wild oats plant response rating (wild oat; [4]): 0 | Wild oats plant response rating (wild oat; [5]): 0 | Plant response rating, Wild oats (wild oat; [6]): 0 | Plant response rating, Wild oats (wild oat; [7]): 5 | Plant response rating, Giant foxtail (giant foxtail; [1]): 0 | Plant response rating, Giant foxtail (giant foxtail; [2]): 0 | Giant foxtail plant response rating (giant foxtail; [3]): 3 | Plant response rating, Giant foxtail (giant foxtail; [8]): 6 | Giant foxtail plant response rating (giant foxtail; [4]): 5 | Giant foxtail plant response rating (giant foxtail; [5]): 9 | Plant response rating, Giant foxtail (giant foxtail; [6]): 9 | Plant response rating, Giant foxtail (giant foxtail; [7]): 9 | Plant response rating, Rape (rape; [1]): 0 | Plant response rating, Rape (rape; [2]): 0 | Rape plant response rating (rape; [3]): 0 | Plant response rating, Rape (rape; [8]): 0 | Rape plant response rating (rape; [4]): 0 | Plant response rating, Rape (rape; [7]): 0
